Laboratory results taken from patent US7129073B2, “Regulation of neuronal function through metabotropic glutamate receptor signaling pathways” (The Rockefeller University, priority 2001, dated 2006).
Entries after “also recorded” stand apart in the source; their conditions may differ.

Legend:
[1] = test system: voltage-dependent Ca2+ channels; experiment: whole-cell recordings of voltage-dependent Ca2+ channels in dissociated neostriatal neurons; type: cell-based, mouse; conditions: for effect on basal Ca2+ currents / effect on the enhancement of Ca2+ currents by DHPG: CK1–7 100 μM, butyrolactone 25 μM (FIG. 6)
Protocol: Neostriatal neurons from 3- to 4-week-old mice were acutely dissociated by using procedures similar to those disclosed in Eberwine et al. (1995, Prog. Brain Res. 105:117–126). Whole-cell current recordings used standard voltage-clamp techniques. The internal solution consisted of 180 mM N-methyl-D-glucamine, 40 mM Hepes, 4 mM MgCl2, 0.5 mM 1,2-bis(2-aminophenoxy)ethane-N,N,N′,N′-tetraacetate, 12 mM phosphocreatine, 2 mM Na2ATP, 0.2 mM Na3GTP, 0.1 mM leupeptin (pH 7.2–7.3), 265–270 mosm/liter. The external solution consisted of 135 mM NaCl, 20 mM CsCl, 1 mM MgCl2, 10 mM Hepes, 0.001 mM tetrodotoxin, 5 mM BaCl2, 10 mM glucose (pH 7.3), 300–305 mosm/liter. Recordings were obtained with an Axon Instruments 200B patch clamp amplifier that was controlled and monitored with an IBM PC running PCLAMP™ (v. 8) with a DigiData 1320 series interface (Axon Instruments, Foster City, Calif.). Electrode resistances were typically 2–4 MΩ in the bath. After seal rupture, series resistance (4–10 MΩ) was compensated (70–90%) and periodically monitored. Drugs were applied with a gravity-fed “sewer pipe” system. The array of application capillaries was positioned 250 μm from the cell under study. Solution changes were effected by altering the position of the array with a DC drive system controlled by a microprocessor-based controller (Newport-Klinger, Irvine, Calif.). Data analyses were performed with AXOGRAPH™ (Axon Instruments), […]™ (Albeck Software, Reading, Pa.), and […]™ (Abacus Concepts, Berkeley, Calif.).

[2] = test system: HA-tagged CK1ε; experiment: kinase activity of HA-CK1ε immunoprecipitated from transfected N2a cells, DARPP-32 as substrate; type: cell-based
Protocol: Neuroblastoma N2a cells were cultured in DMEM containing 5% fetal bovine serum (FBS) to 50–60% confluency. Four micrograms of the expression plasmid for HA-CK1ε were transfected into N2a cells in 100 mm dishes using FuGENE™ 6. Twenty-four hours after transfection, cells were incubated in phosphate-buffered Krebs-Henseleit solution (Sigma) for 10 minutes at room temperature. Cells were then incubated with or without CKI inhibitor for 30 minutes before treating with the group I mGluR agonist (S)-3,5-DHPG (100 μM) for 2 minutes. Cells were then lysed in one ml of lysis buffer containing 1% Nonidet P-40 (NP-40), 150 mM NaCl, 0.1% SDS, 50 mM Tris (pH 8.0), 5 mM Na3VO4, 20 mM NaF, 20 mM β-glycerol-phosphate and protease inhibitors. Lysates were centrifuged at 10,000 g and supernatants were used for immunoprecipitation and kinase assay.
For immunoprecipitation of CKI from N2a cells, lysates (1 mg of total protein) were pre-cleared with 5 μl of mouse IgG and 50 μl of protein A agarose for 30 minutes. Five μl of anti-HA antibody were added and samples were incubated for 1 hour at 4° C. Five μl of anti-mouse rabbit IgG and 50 μl of protein A agarose were then added for 45 minutes. Immuno-complexes were washed three times in lysis buffer, two times in kinase buffer (30 mM Hepes (pH 7.5), 7 mM MgCl2, 0.5 mM DTT). CKI assays were performed in a 30 μl assay volume with 2 μg of purified DARPP-32, 500 μM ATP and 5 μCi γ-^32P-ATP. Samples were incubated at 30° C. for 20 minutes, reactions were stopped by addition of SDS-sample buffer, and samples were boiled for 5 minutes. Samples were separated by SDS-PAGE (12% polyacrylamide). SDS-PAGE gels were dried and exposed to Kodak film for autoradiography. Bands were quantified by analysis using a Molecular Dynamics PhosphorImager.
Neuroblastoma N2a cells were cultured to 50–60% confluence in DMEM containing 5% fetal bovine serum. Four μg of the expression plasmid for HA-CK1ε or myc-MM2-CK1ε was transfected into N2a cells in 100 mm dishes using FuGENE6™. Twenty-four hours after transfection, cells were incubated at room temperature in phosphate-buffered Kreb's-Henseleit solution (Sigma) for 10 min and then with or without inhibitors for 30 min before treating with (S)-3,5-DHPG, for 2 min. Cells were then lysed in 1 ml of radio-immunoprecipitation (RIPA) buffer containing 1% NP-40, 150 mM NaCl, 0.1% SDS, 50 mM Tris, pH 8.0, 5 mM Na3VO4, 20 mM NaF, 20 mM β-glycerol-phosphate and protease inhibitors. Lysates were centrifuged at 10,000 g, and supernatants were used for immunoprecipitation and kinase assay.
For immunoprecipitation of CK1ε from N2a cells, lysates (1 mg of total protein) were precleared with 5 μl of mouse IgG (ICN) and 50 μl of protein A agarose for 30 min. Five μl (approximately 2 μg) of anti-HA or anti-myc antibody was added and samples were incubated for 1 h at 4° C. Five μl of anti-mouse rabbit IgG and 50 μl of protein A agarose were then added for 45 min. Immuno-complexes were washed 3 times in lysis buffer and 2 times in kinase buffer (30 mM Hepes, pH 7.5, 7 mM MgCl2, 0.5 mM DTT).
CK1 assays were performed in a 30 μl assay volume with 2 μg of purified DARPP-32, 500 μM ATP and 5 μCi γ-^32P-ATP. Reactions were started by addition of the ATP. Samples were incubated at 30° C. for 10 min and reactions were stopped by addition of SDS-sample buffer and boiled for 5 min. Samples were separated by SDS-PAGE (12% polyacrylamide). SDS-PAGE gels were dried and exposed to Kodak film for autoradiography. Results were quantified using a Molecular Dynamics PHOSPHORIMAGER™. Immunoprecipitation and assay of Cdk5 were performed as disclosed (20).

Compound | effect on basal Ca2+ currents [1] | effect on the enhancement of Ca2+ currents by DHPG ([1]; DHPG 100 μM) | effect on the enhancement of Ca2+ currents by DHPG ([1]; DHPG 100 μM, listed as CK1–7) | effect on basal Ca2+ currents ([1]; listed as CK1–7) | effect of pre-incubation on the ability of DHPG to increase CK1ε activity ([2]; 30 min before DHPG 100 μM 2 min, CKI-7 100 μM, L-AP3 100 μM, U73122 10 μM, BAPTA/AM 20 μM, cyclosporin A 1 μM) | time to enhancement of Ca2+ currents ([1]; DHPG) [s] | effect on Ca2+ currents ([1]; DHPG 100 μM, wild-type neurons) | effect of DHPG on Ca2+ channels in neurons from DARPP-32 knock-out mice ([1]; DHPG 100 μM, nine out of ten neurons) | effect on CK1ε activity ([2]; DHPG 100 μM for 2 min) | increase in CKI activity compared to the basal level ([2]; DHPG 100 μM for 2 minutes)
NCCNS(=O)(=O)c1ccc(Cl)c2ccncc12 [CKI-7] | significant reduction | eliminated | attenuated | reduced | blocked |  |  |  |  | 
N[C@H](C(=O)O)c1cc(O)cc(O)c1 [DHPG, (S)-3,5-Dihydroxyphenylglycine] |  |  |  |  |  | ≤ 90 | enhanced; also recorded: increased | completely eliminated; also recorded: no effect | increase | approximately 2 fold
